# Reference: PubChem BioAssay (NCI)
#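 Interpolation was linear, between the two tested concentrations surrounding the appropriate level; five concentrations were tested over 48 hours in 96-well plates. TGI: total growth inhibition.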
# Legend:
# Assay in all cases: inhibition of tumour cell growth, NCI panel, 48 h
# HCT-15 colon = test system: HCT-15 colon
# HL-60(TB) leukemia = test system: HL-60(TB) leukemia
# 786-0 renal = test system: 786-0 renal
# HS 578T breast = test system: HS 578T breast
# NCI-H522 lung = test system: NCI-H522 lung
# BT-549 breast = test system: BT-549 breast
# SNB-19 CNS = test system: SNB-19 CNS
# KM12 colon = test system: KM12 colon
# COLO 205 colon = test system: COLO 205 colon
# SF-295 CNS = test system: SF-295 CNS
# MDA-MB-231 breast = test system: MDA-MB-231 breast
# MDA-N = test system: MDA-N
# NCI-H226 lung = test system: NCI-H226 lung
# A498 renal = test system: A498 renal
# SN12C renal = test system: SN12C renal
# MALME-3M melanoma = test system: MALME-3M melanoma
# OVCAR-4 ovarian = test system: OVCAR-4 ovarian
# UACC-62 melanoma = test system: UACC-62 melanoma
# RXF 393 renal = test system: RXF 393 renal
# MDA-MB-435 = test system: MDA-MB-435
# SK-OV-3 ovarian = test system: SK-OV-3 ovarian
# UO-31 renal = test system: UO-31 renal
# SF-268 CNS = test system: SF-268 CNS
# CCRF-CEM leukemia = test system: CCRF-CEM leukemia
# SK-MEL-5 melanoma = test system: SK-MEL-5 melanoma
# MCF7 breast = test system: MCF7 breast
# LOX IMVI melanoma = test system: LOX IMVI melanoma
# MOLT-4 leukemia = test system: MOLT-4 leukemia
# SK-MEL-28 melanoma = test system: SK-MEL-28 melanoma
# RPMI-8226 leukemia = test system: RPMI-8226 leukemia
# SW-620 colon = test system: SW-620 colon
# EKVX NSCLC = test system: EKVX NSCLC
# NCI/ADR-RES ovarian = test system: NCI/ADR-RES ovarian
# CAKI-1 renal = test system: CAKI-1 renal
# SK-MEL-2 melanoma = test system: SK-MEL-2 melanoma
# K-562 leukemia = test system: K-562 leukemia
# PC-3 prostate = test system: PC-3 prostate
# A549 NSCLC = test system: A549 NSCLC
# U251 CNS = test system: U251 CNS
# T-47D breast = test system: T-47D breast
# SF-539 CNS = test system: SF-539 CNS
# HOP-62 NSCLC = test system: HOP-62 NSCLC
# SNB-75 CNS = test system: SNB-75 CNS
# IGROV1 ovarian = test system: IGROV1 ovarian
# DU-145 prostate = test system: DU-145 prostate
# OVCAR-5 ovarian = test system: OVCAR-5 ovarian
# HT29 colon = test system: HT29 colon
# ACHN renal = test system: ACHN renal
# OVCAR-8 ovarian = test system: OVCAR-8 ovarian
# HOP-92 NSCLC = test system: HOP-92 NSCLC
# NCI-H23 lung = test system: NCI-H23 lung
# HCT-116 colon = test system: HCT-116 colon
# TK-10 renal = test system: TK-10 renal
# UACC-257 melanoma = test system: UACC-257 melanoma
# M14 melanoma = test system: M14 melanoma
# HCC-2998 colon = test system: HCC-2998 colon
# SR leukemia = test system: SR leukemia
# OVCAR-3 ovarian = test system: OVCAR-3 ovarian
# NCI-H460 lung = test system: NCI-H460 lung
structure (smiles),measurement,setting,value
CC(=O)NCCC1CN(C(=O)/C=C/I)c2ccccc21 (stereo unspecified),TGI,HCT-15 colon,9.66 µM
same,TGI,HL-60(TB) leukemia,> 100 µM
same,TGI,786-0 renal,3.11 µM
same,TGI,HS 578T breast,37 µM
same,TGI,NCI-H522 lung,2.83 µM
same,TGI,BT-549 breast,10.8 µM
same,TGI,SNB-19 CNS,27.9 µM
same,TGI,KM12 colon,2.67 µM
same,TGI,COLO 205 colon,14.1 µM
same,TGI,SF-295 CNS,28.9 µM
same,TGI,MDA-MB-231 breast,5.15 µM
same,TGI,MDA-N,9.26 µM
same,TGI,NCI-H226 lung,29.2 µM
same,TGI,A498 renal,17.5 µM
same,TGI,SN12C renal,13.3 µM
same,TGI,MALME-3M melanoma,26.3 µM
same,TGI,OVCAR-4 ovarian,4.45 µM
same,TGI,UACC-62 melanoma,9.89 µM
same,TGI,RXF 393 renal,10.8 µM
same,TGI,MDA-MB-435,18.5 µM
same,TGI,SK-OV-3 ovarian,27.8 µM
same,TGI,UO-31 renal,6.85 µM
same,TGI,SF-268 CNS,23.5 µM
same,TGI,CCRF-CEM leukemia,> 38.6 µM
same,TGI,SK-MEL-5 melanoma,20.3 µM
same,TGI,MCF7 breast,2.87 µM
same,TGI,LOX IMVI melanoma,3.25 µM
same,TGI,MOLT-4 leukemia,> 64.6 µM
same,TGI,SK-MEL-28 melanoma,18.2 µM
same,TGI,RPMI-8226 leukemia,> 60.5 µM
same,TGI,SW-620 colon,4.53 µM
same,TGI,EKVX NSCLC,33.3 µM
same,TGI,NCI/ADR-RES ovarian,33.3 µM
same,TGI,CAKI-1 renal,9.03 µM
same,TGI,SK-MEL-2 melanoma,14.8 µM
same,TGI,K-562 leukemia,> 100 µM
same,TGI,PC-3 prostate,21.1 µM
same,TGI,A549 NSCLC,33.1 µM
same,TGI,U251 CNS,24.2 µM
same,TGI,T-47D breast,4.46 µM
same,TGI,SF-539 CNS,21.1 µM
same,TGI,HOP-62 NSCLC,27.7 µM
same,TGI,SNB-75 CNS,30.7 µM
same,TGI,IGROV1 ovarian,18.7 µM
same,TGI,DU-145 prostate,29.2 µM
same,TGI,OVCAR-5 ovarian,29.3 µM
same,TGI,HT29 colon,12.9 µM
same,TGI,ACHN renal,17.8 µM
same,TGI,OVCAR-8 ovarian,25.4 µM
same,TGI,HOP-92 NSCLC,4.43 µM
same,TGI,NCI-H23 lung,25.6 µM
same,TGI,HCT-116 colon,14.3 µM
same,TGI,TK-10 renal,3.63 µM
same,TGI,UACC-257 melanoma,20.4 µM
same,TGI,M14 melanoma,8.5 µM
same,TGI,HCC-2998 colon,29.6 µM
same,TGI,SR leukemia,> 27.4 µM
same,TGI,OVCAR-3 ovarian,12.6 µM
same,TGI,NCI-H460 lung,16.9 µM
COc1cccc(N2C(=O)C3c4[nH]c5ccccc5c4C4CCCC4C3C2=O)c1 (stereo unspecified),TGI,HCT-15 colon,> 10 µM
same,TGI,HL-60(TB) leukemia,> 10 µM
same,TGI,786-0 renal,4.41 µM
same,TGI,HS 578T breast,8.91 µM
same,TGI,NCI-H522 lung,> 10 µM
same,TGI,BT-549 breast,> 10 µM
same,TGI,SNB-19 CNS,> 10 µM
same,TGI,KM12 colon,> 10 µM
same,TGI,COLO 205 colon,> 10 µM
same,TGI,SF-295 CNS,> 10 µM
same,TGI,MDA-MB-231 breast,5.63 µM
same,TGI,MDA-N,> 10 µM
same,TGI,NCI-H226 lung,7.59 µM
same,TGI,A498 renal,5.1 µM
same,TGI,SN12C renal,9.02 µM
same,TGI,MALME-3M melanoma,8.22 µM
same,TGI,OVCAR-4 ovarian,4.76 µM
same,TGI,UACC-62 melanoma,> 10 µM
same,TGI,RXF 393 renal,> 10 µM
same,TGI,MDA-MB-435,> 10 µM
same,TGI,SK-OV-3 ovarian,> 10 µM
same,TGI,SF-268 CNS,> 10 µM
same,TGI,CCRF-CEM leukemia,> 10 µM
same,TGI,SK-MEL-5 melanoma,> 10 µM
same,TGI,MCF7 breast,> 10 µM
same,TGI,LOX IMVI melanoma,> 10 µM
same,TGI,MOLT-4 leukemia,> 10 µM
same,TGI,SK-MEL-28 melanoma,> 10 µM
same,TGI,RPMI-8226 leukemia,> 10 µM
same,TGI,SW-620 colon,> 10 µM
same,TGI,EKVX NSCLC,> 10 µM
same,TGI,NCI/ADR-RES ovarian,> 10 µM
same,TGI,CAKI-1 renal,> 10 µM
same,TGI,SK-MEL-2 melanoma,> 10 µM
same,TGI,K-562 leukemia,> 10 µM
same,TGI,PC-3 prostate,> 10 µM
same,TGI,A549 NSCLC,> 10 µM
same,TGI,U251 CNS,> 10 µM
same,TGI,T-47D breast,> 10 µM
same,TGI,SF-539 CNS,> 10 µM
same,TGI,HOP-62 NSCLC,6.25 µM
same,TGI,SNB-75 CNS,5.77 µM
same,TGI,IGROV1 ovarian,> 10 µM
same,TGI,DU-145 prostate,> 10 µM
same,TGI,OVCAR-5 ovarian,> 10 µM
same,TGI,HT29 colon,> 10 µM
same,TGI,ACHN renal,> 10 µM
same,TGI,OVCAR-8 ovarian,> 10 µM
same,TGI,HOP-92 NSCLC,> 10 µM
same,TGI,NCI-H23 lung,> 10 µM
same,TGI,HCT-116 colon,7.16 µM
same,TGI,TK-10 renal,> 10 µM
same,TGI,UACC-257 melanoma,> 10 µM
same,TGI,M14 melanoma,> 10 µM
same,TGI,HCC-2998 colon,> 10 µM
same,TGI,SR leukemia,4.09 µM
same,TGI,OVCAR-3 ovarian,> 10 µM
same,TGI,NCI-H460 lung,> 10 µM
CN(C)c1ccc(/C(F)=C(F)/C(F)=C(F)/C(F)=C(\F)c2ccc(Br)cc2)cc1,TGI,HCT-15 colon,> 100 µM
same,TGI,HL-60(TB) leukemia,> 75 µM
same,TGI,786-0 renal,22.2 µM
same,TGI,HS 578T breast,52.6 µM
same,TGI,NCI-H522 lung,27.1 µM
same,TGI,BT-549 breast,> 100 µM
same,TGI,SNB-19 CNS,> 78.5 µM
same,TGI,KM12 colon,> 100 µM
same,TGI,COLO 205 colon,63.2 µM
same,TGI,SF-295 CNS,> 52.1 µM
same,TGI,MDA-MB-231 breast,> 100 µM
same,TGI,MDA-N,7.54 µM
same,TGI,NCI-H226 lung,> 100 µM
same,TGI,A498 renal,> 95.5 µM
same,TGI,SN12C renal,> 25.5 µM
same,TGI,MALME-3M melanoma,> 71.8 µM
same,TGI,OVCAR-4 ovarian,> 100 µM
same,TGI,UACC-62 melanoma,> 100 µM
same,TGI,RXF 393 renal,38.7 µM
same,TGI,MDA-MB-435,10.7 µM
same,TGI,SK-OV-3 ovarian,> 100 µM
same,TGI,UO-31 renal,> 100 µM
same,TGI,SF-268 CNS,> 100 µM
same,TGI,CCRF-CEM leukemia,> 78.8 µM
same,TGI,SK-MEL-5 melanoma,> 100 µM
same,TGI,MCF7 breast,> 100 µM
same,TGI,LOX IMVI melanoma,> 100 µM
same,TGI,MOLT-4 leukemia,> 79.6 µM
same,TGI,SK-MEL-28 melanoma,> 100 µM
same,TGI,RPMI-8226 leukemia,> 100 µM
same,TGI,SW-620 colon,> 100 µM
same,TGI,EKVX NSCLC,> 100 µM
same,TGI,NCI/ADR-RES ovarian,22.4 µM
same,TGI,CAKI-1 renal,> 84 µM
same,TGI,SK-MEL-2 melanoma,> 100 µM
same,TGI,K-562 leukemia,> 100 µM
same,TGI,PC-3 prostate,> 52 µM
same,TGI,A549 NSCLC,> 100 µM
same,TGI,U251 CNS,44.7 µM
same,TGI,T-47D breast,> 100 µM
same,TGI,SF-539 CNS,> 100 µM
same,TGI,HOP-62 NSCLC,> 100 µM
same,TGI,SNB-75 CNS,92.9 µM
same,TGI,IGROV1 ovarian,> 100 µM
same,TGI,DU-145 prostate,> 63.7 µM
same,TGI,OVCAR-5 ovarian,> 100 µM
same,TGI,HT29 colon,98 µM
same,TGI,ACHN renal,> 100 µM
same,TGI,OVCAR-8 ovarian,> 96 µM
same,TGI,HOP-92 NSCLC,> 100 µM
same,TGI,NCI-H23 lung,63.4 µM
same,TGI,HCT-116 colon,> 25.5 µM
same,TGI,TK-10 renal,> 100 µM
same,TGI,UACC-257 melanoma,> 100 µM
same,TGI,M14 melanoma,> 69.7 µM
same,TGI,HCC-2998 colon,> 100 µM
same,TGI,SR leukemia,> 100 µM
same,TGI,OVCAR-3 ovarian,> 60.5 µM
same,TGI,NCI-H460 lung,> 100 µM
